Experimental data published in PMC5104943, “Structural and Functional Characterization of a Ruminal β-Glycosidase Defines a Novel Subfamily of Glycoside Hydrolase Family 3 with Permuted Domain Topology” (The Journal of Biological Chemistry, 2016).

Molecular target: T1, GlyA1-ΔCt (rumen metagenome, UniProt Z9J456A3C9)
T1 sequence (Z9J456A3C9 2-799): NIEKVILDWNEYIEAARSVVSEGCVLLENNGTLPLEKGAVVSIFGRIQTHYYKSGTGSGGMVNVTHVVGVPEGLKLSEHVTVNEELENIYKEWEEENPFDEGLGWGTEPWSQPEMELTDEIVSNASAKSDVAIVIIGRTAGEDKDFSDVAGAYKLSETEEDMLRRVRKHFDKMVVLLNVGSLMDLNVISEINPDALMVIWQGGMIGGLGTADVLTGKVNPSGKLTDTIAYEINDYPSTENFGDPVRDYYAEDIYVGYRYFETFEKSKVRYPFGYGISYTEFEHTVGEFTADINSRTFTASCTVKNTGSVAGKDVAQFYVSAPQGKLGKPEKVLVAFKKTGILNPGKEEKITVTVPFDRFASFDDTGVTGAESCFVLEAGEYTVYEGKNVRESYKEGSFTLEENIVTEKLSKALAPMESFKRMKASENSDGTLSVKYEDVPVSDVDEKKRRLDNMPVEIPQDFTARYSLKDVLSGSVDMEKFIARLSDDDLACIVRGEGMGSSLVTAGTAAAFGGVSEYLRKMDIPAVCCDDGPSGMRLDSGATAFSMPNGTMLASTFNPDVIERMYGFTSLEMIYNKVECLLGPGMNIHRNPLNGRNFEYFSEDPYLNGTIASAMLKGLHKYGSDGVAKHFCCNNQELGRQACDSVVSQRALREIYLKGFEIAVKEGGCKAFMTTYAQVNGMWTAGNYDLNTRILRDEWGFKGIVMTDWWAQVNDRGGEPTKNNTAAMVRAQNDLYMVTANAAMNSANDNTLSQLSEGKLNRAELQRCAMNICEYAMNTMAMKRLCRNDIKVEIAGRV
Assay: X-ray crystallography, […] Å, soak […]
Type: binding
Settings: active site subsite -1, semi-chair conformation; 2.0 M ammonium sulfate, pH 5.5

OC[C@H]1OC(O)[C@H](O)[C@@H](O)[C@H]1O (stereo partly drawn) [D-galactose]
X-ray crystallography, 2.29 Å, soak 5-50 mM: soaking of crystals with galactose showed that this sugar displays a semi-chair conformation
